Results reported in a melting point compilation (Tetko et al.; mined from patent text by program, amines drawn as free bases though some values may be those of a salt).

melting point	Compound
194 °C	O=c1[nH]c2ccccc2n1Cc1ccccc1
150 to 151 °C	CCC(C)(C)Nc1c(N(Cc2ccc(C#N)cc2Cl)C(C)=O)c(=O)c1=O
93 to 95.5 °C	CC(C)(C)c1cc(CCC(=O)ON(Cc2ccccc2)Cc2ccccc2)cc(C(C)(C)C)c1O
139 to 140 °C	N#CCCNC(=O)c1cccc(-c2cccc(Oc3cccc(Cl)c3)n2)c1
169 to 170 °C	NC(=O)c1cc(OCCNCC(O)c2ccccn2)ccc1O (configuration not stated)
257 °C	CCCCOc1ccc(S(=O)(=O)C2(C(=O)O)CCN(Cc3ccc(Cl)c(Cl)c3)CC2)cc1
99 to 101 °C	CC(C)(Oc1ccc(CCC(=O)c2cc(-c3ccc(C(F)(F)F)cc3)cs2)c(Cl)c1Cl)C(=O)O
128 to 129 °C	CCCCN(Cc1ccc(-c2ccccc2S(=O)(=O)NC(C)(C)C)cc1)C(=O)Cl
160 to 162 °C	NC(=O)CCCN1C(=O)c2ccccc2C1=O
186 to 188 °C	Cn1c(COc2ccc(CC3SC(=O)NC3=O)cc2)nc2ccc(Oc3ccc(NC(=S)Nc4cccc5ccccc45)cc3)cc21 (configuration not stated)
302 °C	Cc1cc(O)n2nc(S(=O)(=O)Nc3c(Cl)cccc3Cl)nc2n1
202 to 204 °C	Cc1cc(Cl)ccc1NC(=O)c1cccc([N+](=O)[O-])c1C(=O)NC(C)C
129 °C	Oc1cc(Br)ccc1/C=N/c1ccccc1
50 to 53 °C	CC(C)OCC(=O)NC1CCN(CC23CC(c4ccccc42)c2ccc(Cl)cc23)CC1 (configuration not stated)
63 to 64 °C	OCc1cc2c(F)ccc(Cl)c2s1
91 to 93 °C	CCOC(=O)Cc1c(C(=O)OCC)c(C)c(C(=O)c2ccc(Cl)cc2)n1C
294 to 295 °C	O=C1NC(=O)c2c1c(-c1ccccc1Cl)cc1c2cc(C(=O)O)n1CCCBr
220 to 222 °C	CC1CCc2ccc(Cl)c3c(=O)c(C(=O)O)cn1c23 (configuration not stated)
95.5 °C	Clc1ccccc1-c1nc(Cl)n(-c2ccccc2Cl)n1
135 to 138 °C	Cc1nc(C)c(Cl)c(NCc2ccc(OCc3ccccc3)c(OCC(F)(F)F)c2)n1
202 to 204 °C	O=c1[nH]c2ccc(C=CCN3CCC(Cc4ccc(F)cc4)CC3)cc2o1

melting point	Compound
58 to 59 °C	COC(=O)COc1cccc2c(CCBr)coc12
199 to 201 °C	CN1C(=O)OCCc2cc(Nc3ncc(Cl)c(Nc4c(F)cccc4OCCO)n3)ccc21
180 to 182 °C	COC(=O)C1=C(COCC(C)n2c(C)nc(C)c2C)Nc2c(c(=O)n(C)c(=O)n2C)C1c1ccccc1Cl (configuration not stated)
165 to 166 °C	O=C(O)c1ccc(OCCCc2ccccc2)cc1
118 to 120 °C	CN(C)CCCOc1ccc(N2N=C3c4cc(F)ccc4CCC3CC2=O)cc1 (configuration not stated)
166 to 168 °C	Cc1ccc(C)c(OCc2ccccc2/C(=N\O)C(N)=O)c1
200 to 202 °C	CCc1cc(N)c(C(=O)c2ccccc2)c(C)n1
152 to 154 °C	CC(C)(C)OC(=O)N1CCNC(=O)C1Cc1ccccc1 (configuration not stated)
48 to 49 °C	Fc1ccc(-c2cc(CCOCc3ccccc3)cc(OCCCCCl)c2)cc1
166 to 168 °C	COc1nc(C)cnc1NS(=O)(=O)c1cccnc1-c1ccc(CCC(=O)O)cc1
206 to 207 °C	CC(C)(NC(=O)C1=C(C(=O)Nc2cc(OC3CCCC3)c(Cl)cc2F)CCCC1)c1ccccc1
256 to 257 °C	O=C(O)CCC(=O)Nc1ccc2oc(-c3ccc(O)cc3)c(O)c(=O)c2c1
167 to 170 °C	CN(C)c1ccc(-c2nc(Cl)c3ccccc3n2)cc1
167 to 168 °C	CC(NC(=O)Nc1cc(Cl)ccc1CCc1cc(C(C)(C)C)c(O)c(C(C)(C)C)c1)c1ccccc1 (configuration not stated)
243 to 244 °C	C=Cc1cnc2c(NC(=O)c3c(Cl)cccc3Cl)cccc2c1CO
228 to 230 °C	COc1ccc(CNc2ccnc(Cl)c2C(=O)O)cc1Cl
253 to 255 °C	O=C1CCC(N2Cc3c(NCc4cccc(Cl)c4)cccc3C2=O)C(=O)N1 (configuration not stated)
241 to 242 °C	Cn1c(C(=O)O)cc(=O)c2oc3ccc(Cl)cc3c(=O)c21
225 to 226 °C	CCc1cc(CC)c(-c2c(O)c(C)nn(C)c2=O)c(CC)c1Br
71 to 72 °C	FC(F)(F)c1cnc(-c2ccc(Cl)c(CBr)c2)c(Cl)c1

Continued, compound first:

Compound	melting point
CCOc1cc2c(cc1OCC)C(C(S)(C#N)c1ccc(Cl)cc1)=NCC2 (configuration not stated)	157 to 160 °C
O=C(O)c1c[nH]c2c1C(=O)CCC2	269 to 270 °C
CC1=CC=CC(O)(C(=N)N)C1C (configuration not stated)	110 to 111 °C
CCOC(=O)CSC1(SCC(=O)OCC)CCC2C3CCC4=CC(=O)C=CC4(C)C3(F)C(O)CC21C (configuration not stated)	125 to 127 °C
CC(=NOCCO)c1ccc(-c2ccccc2)cc1	128 to 130 °C
Cc1c(/C=C/C(=O)c2cn(C)c3ccccc23)ncn1C(c1ccccc1)(c1ccccc1)c1ccccc1	216 to 219 °C
COC1=C(OC)C(=O)C(CCCCCCCCCC(=O)N[C@@H](CCSC)C(=O)O)=C(C)C1=O	83 to 85 °C
NC1CCCCC1N1CCC(Cc2ccc(Cl)cc2)CC1 (configuration not stated)	69.1 to 70.4 °C
COc1cccc(NS(=O)(=O)c2cccc(C=CC(=O)NO)c2)c1	137 °C
COc1c(N2CCC(N)C(C)C2)c(F)c(N)c2c(=O)c(C(=O)O)cn(C3CC3)c12 (configuration not stated)	260 to 262 °C
CC(C(=O)O)c1ccc(C(F)(F)F)cc1 (configuration not stated)	56 to 58 °C
CSc1nccc(Oc2ccc(NC(=O)OC(C)(C)C)c3ccccc23)n1	173 to 174 °C
COc1ccc(C(=O)C=Cc2cc(O)c(O)c([N+](=O)[O-])c2)cc1	222 to 228 °C
CCOC(=O)c1ccc(C(=O)CN2CCN(c3ccncc3)CC2)cc1	147 to 149 °C
Cc1cc(C(O)(C(F)(F)F)C(F)(F)F)cc(C)c1SCC(=O)O	133 to 135 °C
C=CCOc1cc(-n2c(=O)cc(C(F)(F)F)n(C)c2=O)c(F)cc1Br	120 °C
CC(=O)c1c(C)sc2ccnn12	130 to 131 °C
CN1C2CCCC1CN(c1ccc3cc([N+](=O)[O-])ccc3n1)C2	166 °C
CCCCC1CC(=O)C2(C)CCC3=C4CCC(=O)C=C4CCC3C12 (configuration not stated)	159 to 161 °C
CC=Cc1cc(OC)c(OC)cc1Cc1cnc(N)nc1N	204 to 208 °C
Nc1ccc2c(c1)C(=O)C2	92 to 93 °C

Compound	melting point
CCOC(=O)/C(=C/c1ccc(OC)c2c1CC(C)(C)O2)c1ccncc1	98 to 100 °C
COC(=O)C=CCC1C(=O)N2C(C(=O)OCC(Cl)(Cl)Cl)=CCC12 (configuration not stated)	101 to 102 °C
COc1cc(-c2cnc3[nH]cc(C(=O)N4CCCC4)c3n2)cc(OC)c1OC	210 to 212 °C
CC1(C)CCC(C)(C)C(=O)C1=O	109 to 111 °C
N#Cc1ccc(N2CCCCO2)c2ccccc12	111 to 112 °C
CC(C)C(=O)C(C)(C)SN(C)C(=O)ON=C1SC(C)(C)C(=O)N1C	112 to 114 °C
COc1cc(C2CCN(C[C@H](O)C(F)(F)F)CC2)ccc1Nc1ncc2ccc(-c3ccccc3OC)n2n1	77 to 94 °C
CCC(CC)n1nc(C)c2c(NN3CCc4cc(Br)cc(Br)c43)nc(C)nc21	190 to 191 °C
CC(NC(=O)CNC(=O)c1ccccc1)C(C)(C)C (configuration not stated)	124 to 126 °C
COCCOC(=O)c1c(-c2ccncc2)[nH]c(-c2ccncc2)c1C	174 to 177 °C
C[C@H](NC(=O)CCCCc1ccccc1)C(=O)N[C@H](CCC(=O)O)C(=O)O	135 to 140 °C
Cc1ccc(-c2cccc(/C=C/C(=O)Nc3ccc(CN4CCCCC4)cc3)c2)cc1	154 to 156 °C
COc1ccc2[nH]c(-c3cc4cccnc4n3S(=O)(=O)c3ccc(C)cc3)cc2c1	226 to 227 °C
CC(C)(C)C(=O)c1ccc(CSCc2ccc(C(=O)C(C)(C)C)cc2)cc1	64 to 65 °C
C[Si](C)(C)c1ccc(Cl)s1	68 to 69 °C
CC(Cl)=CC(C#N)NC(=O)c1cn(C)nc1C (configuration not stated)	113 to 114 °C
CCCCCCCCCCCCCCCCCCCCCCOS(=O)(=O)c1ccc(Cl)cc1	74 to 75 °C
CN(C)C=Nc1ncc(C#Cc2ccc(Cl)cc2)c(Cl)n1	195 to 197 °C
CC1CC(=O)NN=C1c1ccc(NC(=O)C(C)(C)C#N)cc1 (configuration not stated)	225 to 227 °C
CCOC(=O)c1ncn2c1[C@@H]1CCCN1C(=O)c1c-2ccc(F)c1F	199 to 200 °C
COc1ccc(Cc2cc(I)ccc2OC)cn1	68 to 70 °C

Compound	melting point
CCn1nc(C)sc1=Nc1ccc(N2CCN(c3ccc(OC)cc3)CC2)cc1	175 °C
COC(=O)c1cc2nccnc2cc1NC(=O)OC(C)(C)C	196 to 198 °C
OCCNCCc1c[nH]c2ccccc12	92 °C
Cc1cc(-c2ccc(OC(F)(F)F)cc2)cc(-c2cccc(-c3cccc(S(=O)(=O)NC(C)(C)C)c3)n2)n1	148 °C
O=[N+]([O-])c1cccc(-c2ncc[nH]2)c1	193 to 194 °C
CC(C)c1ccc(N)nn1	131 to 132 °C
COC(=O)c1ccc(C(=O)Nc2sc3c(c2C(=O)NCc2ccc4c(c2)OCO4)CCCC3)cc1	138 °C
COc1cccc(C(O)c2cccnc2Cl)c1 (configuration not stated)	114 to 115 °C
CCc1n[nH]c2cc(-c3ccc4nnn(Cc5ccc6ncccc6c5)c4n3)ccc12	211 to 213 °C
O=C(O)Cc1ccc(N(C(=O)C(COC2CCCCO2)NS(=O)(=O)c2ccc3ccccc3c2)c2ccc(CC(=O)O)cc2)cc1 (racemic)	130 to 140 °C
CCNc1nc(Cl)cc(NS(=O)(=O)c2ccc(N)cc2)n1	172 to 173 °C
COc1ccc2c(c1)C(=O)C(=Cc1ccc(F)cc1)CC2	129 to 130 °C
COc1cc(C(=O)O)cc2c1CC(C)O2 (configuration not stated)	180 to 182 °C
CC(C)NC(=O)CCCCc1cc(O)c(O)c([N+](=O)[O-])c1	113 to 115 °C
CCn1c(=O)c(C#N)c(N)c2ccc(C)nc21	> 300 °C
CCCCSc1cc(C(=O)OCC)cc(S(N)(=O)=O)c1Cl	160 to 162 °C
O=C(NC1C(=O)N(CC23CC4CC(CC(C4)C2)C3)c2ccccc2N(c2ccccc2)C1=O)Oc1ccccc1 (configuration not stated)	205 to 207 °C
NC(=O)c1cc2c(Oc3ccc(N)cc3)cncc2s1	> 250 °C
CN=C1N(c2c(C)cccc2C)CCN1c1c(C)cccc1C	180 to 181 °C
